Assay results as given in patent US9091700B2, “Modified peptide substrate” (McMaster University, priority 2005, dated 2015).

Tests used:
Type in all cases: biochemical
[1] = target: T1, A2M (Homo sapiens, UniProt P01023); test: Reaction of soluble S2238 in 96-well plate, change in absorbance at 405 nm over 100 seconds; details: absorbance 405 nm over 100 seconds
T1 construct: purchased Sigma
T1 sequence (P01023 24-1474): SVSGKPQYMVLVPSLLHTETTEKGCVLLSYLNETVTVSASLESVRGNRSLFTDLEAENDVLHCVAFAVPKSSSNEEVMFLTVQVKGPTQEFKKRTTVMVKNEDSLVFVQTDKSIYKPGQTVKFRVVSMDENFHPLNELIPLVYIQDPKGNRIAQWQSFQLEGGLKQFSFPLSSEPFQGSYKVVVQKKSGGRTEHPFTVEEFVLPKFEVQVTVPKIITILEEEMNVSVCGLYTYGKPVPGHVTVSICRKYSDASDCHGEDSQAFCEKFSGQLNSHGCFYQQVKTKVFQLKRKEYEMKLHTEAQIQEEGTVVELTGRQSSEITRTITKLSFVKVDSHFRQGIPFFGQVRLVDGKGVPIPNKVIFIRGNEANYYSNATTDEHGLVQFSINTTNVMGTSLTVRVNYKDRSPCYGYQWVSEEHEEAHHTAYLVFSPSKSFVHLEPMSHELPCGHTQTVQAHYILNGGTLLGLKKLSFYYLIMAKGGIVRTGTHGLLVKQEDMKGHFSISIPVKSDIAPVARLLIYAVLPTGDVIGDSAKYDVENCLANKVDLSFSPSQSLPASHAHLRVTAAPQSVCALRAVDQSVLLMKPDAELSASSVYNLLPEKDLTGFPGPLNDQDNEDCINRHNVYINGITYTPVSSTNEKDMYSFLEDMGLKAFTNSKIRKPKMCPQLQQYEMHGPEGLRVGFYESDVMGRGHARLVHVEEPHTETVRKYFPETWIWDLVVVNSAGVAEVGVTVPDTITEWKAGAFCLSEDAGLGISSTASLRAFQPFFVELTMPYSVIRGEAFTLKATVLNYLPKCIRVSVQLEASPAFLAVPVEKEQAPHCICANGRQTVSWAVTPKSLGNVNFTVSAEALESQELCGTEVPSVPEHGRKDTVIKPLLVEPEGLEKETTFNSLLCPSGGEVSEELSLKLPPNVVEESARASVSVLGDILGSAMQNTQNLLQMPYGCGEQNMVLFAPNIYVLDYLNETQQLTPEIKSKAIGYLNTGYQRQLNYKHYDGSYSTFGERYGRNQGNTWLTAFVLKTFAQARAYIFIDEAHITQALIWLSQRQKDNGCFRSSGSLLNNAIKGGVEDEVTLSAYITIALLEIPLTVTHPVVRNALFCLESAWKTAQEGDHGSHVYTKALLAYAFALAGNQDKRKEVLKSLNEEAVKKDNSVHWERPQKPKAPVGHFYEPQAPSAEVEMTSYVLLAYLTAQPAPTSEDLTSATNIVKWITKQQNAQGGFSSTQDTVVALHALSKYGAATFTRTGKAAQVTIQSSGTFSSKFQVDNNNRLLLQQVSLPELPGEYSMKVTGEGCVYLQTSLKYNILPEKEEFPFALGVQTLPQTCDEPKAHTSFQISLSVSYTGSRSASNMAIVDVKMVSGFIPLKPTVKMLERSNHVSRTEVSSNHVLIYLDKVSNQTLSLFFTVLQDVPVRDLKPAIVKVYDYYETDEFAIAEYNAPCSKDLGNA
Procedure: (§1) A solution of 0.05M HEPES 0.15M NaCl pH 7.5 (HBS) was prepared. Thrombin-A2M was prepared by reaction of 40 μL of 5 mg A2M (Sigma)/mL+40 μL of 0.2 mg thrombin (Enzyme Research Laboratories, South Bend, 1N, USA)/mL HBS for 40 to 60 minutes at 23° C. (solution #1). Solutions of 40 μL of 5 mg A2M/mL+40 μL HBS (solution #2) and 40 μL of 0.2 mg thrombin/mL+40 μL HBS (solution #3) were prepared.
(§2) The following reactions with S2238 were carried out in 96-well plate wells. • 1. 5 μL of solution #1 were added to 10 uL of 0.5 mg antithrombin (purified antithrombin III protein, Affinity Biologicals, Ancaster, Ontario, Canada)/mL HBS+1 μL of 100 U heparin (Leo Laboratories, Ajax, Ontario, Canada)/mL HBS+74 μL HBS. After 10 minutes, 10 μL of 3.192 mg S2238/mL H2O was added with mixing, absorbance readings at 405 nm measured every 10 seconds for 100 seconds and the change in absorbance over that time recorded (AA). • 2. 5 μL of solution #2 were added to 10 uL of 0.5 mg antithrombin/mL HBS+1 μL of 100 U heparin/mL HBS+74 μL HBS. After 10 minutes, 10 μL of 3.192 mg S2238/mL H2O was added with mixing, absorbance readings at 405 nm measured every 10 seconds for 100 seconds and the change in absorbance over that time recorded (AA). • 3. 5 μL of solution #3 were added to 10 uL of 0.5 mg antithrombin/mL HBS+1 μL of 100 U heparin/mL HBS+74 μL HBS. After 10 minutes, 10 μL of 3.192 mg S2238/mL H2O was added with mixing, absorbance readings at 405 nm measured every 10 seconds for 100 seconds and the change in absorbance over that time recorded (AA). • 4. 5 μL of solution #1 were added to 85 uL of HBS. After 10 minutes, 10 μL of 3.192 mg S2238/mL H2O was added with mixing, absorbance readings at 405 nm measured every 10 seconds for 100 seconds and the change in absorbance over that time recorded (AA). • 5. 5 μL of solution #2 were added to 85 uL of HBS. After 10 minutes, 10 μL of 3.192 mg S2238/mL H2O was added with mixing, absorbance readings at 405 nm measured every 10 seconds for 100 seconds and the change in absorbance over that time recorded (AA). • 6. 5 μL of solution #3 were added to 85 uL of HBS. After 10 minutes, 10 μL of 3.192 mg S2238/mL H2O was added with mixing, absorbance readings at 405 nm measured every 10 seconds for 100 seconds and the change in absorbance over that time recorded (LA).

[2] = target: T2, thrombin (Homo sapiens, UniProt P00734); test: as above; details: for ΔA: absorbance 405 nm over 100 seconds
T2 construct: 0.2 mg thrombin (Enzyme Research Laboratories, South Bend, 1N, USA)/mL HBS; purchased Enzyme Research Laboratories
Procedure: as §1, §2

[3] = target: T3, thrombin-A2M (Homo sapiens, UniProt P00734); test: as above; details: for ΔA: absorbance 405 nm over 100 seconds
T3 construct: 0.2 mg thrombin (Enzyme Research Laboratories, South Bend, 1N, USA)/mL HBS; purchased Enzyme Research Laboratories (thrombin); Sigma (A2M)
Procedure: as §1, §2

[4] = target: T2, thrombin; test: Further comparison of reactivities (Example 3), change in absorbance; details: reactant Thrombin
Procedure: (§3) Thrombin and thrombin-A2M were added to samples of S2238 and S2238-Agarose.

[5] = target: T3, thrombin-A2M; test: as above; details: reactant thrombin-A2M
Procedure: as §3

[6] = target: T4, human alpha thrombin (Homo sapiens, UniProt P00734); test: Reaction of thrombin with S2238 SEPHAROSE beads or free S2238, absorbance at 405 nm of supernatant; details: + thrombin + TSP buffer; 100 nM thrombin, 23° C.
T4 construct: 100 nM human alpha thrombin (Enzyme Research Laboratories); purchased Enzyme Research Laboratories
Procedure: 0.5 mL of resuspended S2238 SEPHAROSE™ beads was placed in each of 2 microfuge tubes (1.5 mL capacity), followed by centrifugation at 12000 g for 1 minute and removal of the resultant supernatant. Beads in each tube were resuspended in 0.5 mL of 0.02 M Tris-HCl 0.15 M NaCl 0.6% polyethylene glycol 8000 pH 7.4 (TSP), centrifuged for 1 minute and the resultant supernatant discarded. A solution of 100 nM human alpha thrombin (Enzyme Research Laboratories) in TSP was prepared. 0.5 mL of thrombin was added to one tube of packed S2238 SEPHAROSE™ beads (tube 1) and 0.5 mL of TSP was added to the other tube of S2238-SEPHAROSE™ beads (tube 2). In a separate empty tube, 0.05 mL of free (not conjugated to beads) S2238 stock solution (12.5 mg of S2238/mL of H2O)+0.15 mL of TSP+0.5 mL of 100 nM thrombin were added (tube 3). Finally, in a separate empty tube, 0.05 mL of free S2238 stock solution+0.65 mL of TSP were added (tube 4). All of the tubes were capped and tubes+contents were gently shaken by inversion manually for 10 min at 23° C. Following inversion mixing, tubes were centrifuged at 12000 g for 1 min and 0.2 mL of supernatant fluid from each tube quickly removed to separate wells of a 96-well microtitre plate and the absorbance at 405 nm measured.

[7] = tested on: Total Thrombin (Free Thrombin+Thrombin-A2M); test: Plasma thrombin generation, subsamples detected with free S2238 or S2238-Agarose; details: for Thrombin activity detected (absorbance at 405 nm), in words: plasma samples with free thrombin+thrombin-A2M, FIG. 5
Procedure: Plasma is taken and the fibrinogen removed by reaction with ancrod enzyme to form a fibrin clot that is wound out to give the resultant defibrinated plasma. At time zero, tissue factor (Thromborel S)+CaCl2 are added to start thrombin generation in the pre-warmed defibrinated plasma. At certain time points, subsamples from the reaction mixture are taken into Na2EDTA to stop further thrombin generation by chelating the Ca^2+. Thrombin activity in the time sample (containing both free thrombin and thrombin bound to alpha-2-macroglobulin (A2M)) was then detected by mixing with either free S2238 substrate in buffer or sterically hindered S2238 substrate (S2238-Agarose beads) suspended in buffer. In order to determine the ability of free S2238 or S2238-Agarose to detect thrombin-A2M, a similar experiment to the above method was carried out, except that all free thrombin was inhibited first by mixing with antithrombin+heparin prior to incubation with substrate. […] Thus, early time point samples (i.e. 60 seconds) would contain more free thrombin than thrombin-A2M, while later time point samples (i.e. 300 seconds) would contain much more thrombin-A2M than free thrombin.
12 mm (ID)×75 mm (L) polycarbonate plastic test tubes were used for plasma thrombin generation. • 1. Defibrination of Plasma: • a. 800 μL of Plasma was incubated with 10 μL of 30 U/mL Ancrod stock at 37° C. for 10 minutes. • b. After incubation, fibrin clot that formed was wound out on a plastic rod, leaving supernatant defibrinated plasma. • c. Test tube was placed on ice for 10 minutes. • d. After 10-minute incubation, any further clots were wound out. • e. Defibrinated plasma was stored on ice. • 2. The activator solution (12.5 μL Thromborel S+4.0 μL 1M CaCl2+183.5 μL HBS) was warmed at 37° C. in a tube. In a separate tube, 150 μL of defibrinated plasma was warmed at 37° C. • 3. At t=0, 150 μL of activator solution was mixed with 150 μL of defibrinated plasma, at 37° C. • 4. […] Aliquots of […] of supernatant from each sample were placed in 96-well plate wells and the absorbance at 405 nm measured.

[8] = target: T3, thrombin-A2M; test: Plasma thrombin generation, free thrombin neutralized by antithrombin+heparin before substrate; details: plasma samples with thrombin-A2M only (free thrombin neutralized by antithrombin+heparin); FIG. 5
Procedure: Plasma is taken and the fibrinogen removed by reaction with ancrod enzyme to form a fibrin clot that is wound out to give the resultant defibrinated plasma. At time zero, tissue factor (Thromborel S)+CaCl2 are added to start thrombin generation in the pre-warmed defibrinated plasma. At certain time points, subsamples from the reaction mixture are taken into Na2EDTA to stop further thrombin generation by chelating the Ca^2+. Thrombin activity in the time sample (containing both free thrombin and thrombin bound to alpha-2-macroglobulin (A2M)) was then detected by mixing with either free S2238 substrate in buffer or sterically hindered S2238 substrate (S2238-Agarose beads) suspended in buffer. […]
12 mm (ID)×75 mm (L) polycarbonate plastic test tubes were used for plasma thrombin generation. • 1. […] Aliquots of 2004 of supernatant from each sample were placed in 96-well plate wells and the absorbance at 405 nm measured.
The experiment described above was repeated, except that at step 4, 25 μL of time sample was added to 5 μL of 50 U antithrombin/mL PBS (7.2 mg antithrombin/mL)+2 μl of 100 U heparin/mL 0.15M NaCl on ice. […] Absorbance detected at 405 nm was essentially due to substrate reaction with thrombin-A2M alone (free thrombin having been neutralized by antithrombin+heparin).

In the case of H-D-Phe-Pip-Arg-pNA [S2238], the ΔA ([1]; A2M + antithrombin + heparin added) is reported as 0, the ΔA ([1]; A2M added) is reported as 0 and the ΔA ([2]; Thrombin added) is reported as 0.95. For the same substance, the “Reaction with free thrombin (in words)” value ([2]; summary of Table 1) was “reacts readily”, the ΔA ([2]; thrombin + antithrombin + heparin added) was 0 and the ΔA ([3]; Thrombin-A2M added) was 0.8. For the same substance, the “Reaction with thrombin-A2M (in words)” value ([3]; summary of Table 1) was “reacts readily”, the ΔA ([3]; thrombin-A2M + antithrombin + heparin added) was 0.8 and the “Thrombin Activity (Δ absorbance/minute)” value [4] was 0.57 Δ absorbance/minute. The “Thrombin Activity (Δ absorbance/minute)” value [5] was 0.48 Δ absorbance/minute, the “Absorbance at 405 nm of supernatant after 10 minutes incubation and 1 minute centrifugation” value [6] was 1.143 and the “Which thrombin species accounts for the detected activity (comparison of samples)” value ([7]; comparison of free thrombin+thrombin-A2M samples with thrombin-A2M only samples, 60 sec or 300 sec) was “the vast majority of soluble S2238 activity is due to thrombin-A2M”. For the same substance, the “Thrombin activity detected (absorbance at 405 nm), in words” value (shortened to “Thrombin activity detected”) ([7]; 60 seconds after plasma activation) was “significant activity”, the “Thrombin activity detected” value ([7]; 300 seconds after plasma activation) was “significant thrombin substrate activity” and the “Thrombin activity detected” value [8] was “significant thrombin activity”.
